The values that follow come from US11076594B2, “Pyrazolone compound or salt thereof, preparation method therefor, herbicide composition and use thereof” (QINGDAO KINGAGROOT CHEMICAL COMPOUNDS CO., LTD., priority 2015, dated 2021).

Holding throughout (assay type): in vivo
Series [1] has as its system Indian mallow. Briefly: weed control effect in post-emergence stage (Table 1). Details: key: Level 10: completely dead; Level 9: above 95% growth control rate; Level 8: above 90% growth control rate; Level 7: above 80% growth control rate; Level 6: above 70% growth control rate; Level 5: above 60% growth control rate; Level 4: above 50% growth control rate; Level 3: above 20% growth control rate; Level 2: 5%-20% growth control rate; Level 1: below 5% growth control rate. Conditions: post-emergence spray at 4-5 leaf stage, 250 g/ha active ingredient with 450 kg/ha water, rated after 3 weeks in greenhouse. The gist of the method:
(§1)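 Weeds and crops grown in soil-filled pots in a greenhouse were sprayed at the 4-5 leaf stage (2-3 weeks after sowing). Compounds were applied in acetone with tween 80, diluted in water. After 3 weeks' culture, growth control was scored as fresh weight control rate.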

Series [2] has as its system bidens bipinnata. The description is as above. Further details: key: Level 10: completely dead; Level 9: above 95% growth control rate; Level 8: above 90% growth control rate; Level 7: above 80% growth control rate; Level 6: above 70% growth control rate; Level 5: above 60% growth control rate; Level 4: above 50% growth control rate; Level 3: above 20% growth control rate; Level 2: 5%-20% growth control rate; Level 1: below 5% growth control rate. The settings on record: post-emergence spray at 4-5 leaf stage, 250 g/ha active ingredient with 450 kg/ha water, rated after 3 weeks in greenhouse. The gist of the method:
as §1

In series [3] the test system is crab grass. The series is described as above. Further details: key: Level 10: completely dead; Level 9: above 95% growth control rate; Level 8: above 90% growth control rate; Level 7: above 80% growth control rate; Level 6: above 70% growth control rate; Level 5: above 60% growth control rate; Level 4: above 50% growth control rate; Level 3: above 20% growth control rate; Level 2: 5%-20% growth control rate; Level 1: below 5% growth control rate. The settings on record: post-emergence spray at 4-5 leaf stage, 250 g/ha active ingredient with 450 kg/ha water, rated after 3 weeks in greenhouse. The procedure, abridged:
as §1

The subject of series [4] is echinochloa. The series is described as above. Further details: key: Level 10: completely dead; Level 9: above 95% growth control rate; Level 8: above 90% growth control rate; Level 7: above 80% growth control rate; Level 6: above 70% growth control rate; Level 5: above 60% growth control rate; Level 4: above 50% growth control rate; Level 3: above 20% growth control rate; Level 2: 5%-20% growth control rate; Level 1: below 5% growth control rate. The settings on record: post-emergence spray at 4-5 leaf stage, 250 g/ha active ingredient with 450 kg/ha water, rated after 3 weeks in greenhouse. The gist of the method: as §1

Series [5] concerns foxtail. Described as above. Details: key: Level 10: completely dead; Level 9: above 95% growth control rate; Level 8: above 90% growth control rate; Level 7: above 80% growth control rate; Level 6: above 70% growth control rate; Level 5: above 60% growth control rate; Level 4: above 50% growth control rate; Level 3: above 20% growth control rate; Level 2: 5%-20% growth control rate; Level 1: below 5% growth control rate. Conditions: post-emergence spray at 4-5 leaf stage, 250 g/ha active ingredient with 450 kg/ha water, rated after 3 weeks in greenhouse. The procedure, abridged:
as §1

Series [6] has as its system rorippa indica. The series is described as above. Further details: key: Level 10: completely dead; Level 9: above 95% growth control rate; Level 8: above 90% growth control rate; Level 7: above 80% growth control rate; Level 6: above 70% growth control rate; Level 5: above 60% growth control rate; Level 4: above 50% growth control rate; Level 3: above 20% growth control rate; Level 2: 5%-20% growth control rate; Level 1: below 5% growth control rate. Conditions: post-emergence spray at 4-5 leaf stage, 250 g/ha active ingredient with 450 kg/ha water, rated after 3 weeks in greenhouse. The procedure, abridged:
as §1

In series [7] the test system is corn. As to the kind of experiment: post-emergence stage experiment, crop (Table 1). The settings on record: post-emergence spray at 4-5 leaf stage, 250 g/ha active ingredient with 450 kg/ha water, rated after 3 weeks in greenhouse. The procedure, abridged:
as §1

The subject of series [8] is wheat. Briefly: post-emergence stage experiment, crop (Table 1). The settings on record: post-emergence spray at 4-5 leaf stage, 250 g/ha active ingredient with 450 kg/ha water, rated after 3 weeks in greenhouse. The procedure, abridged:
as §1

Series [9] has as its system rice. As to the kind of experiment: post-emergence stage experiment, crop (Table 1). Further details: key: Level 10: completely dead; Level 9: above 95% growth control rate; Level 8: above 90% growth control rate; Level 7: above 80% growth control rate; Level 6: above 70% growth control rate; Level 5: above 60% growth control rate; Level 4: above 50% growth control rate; Level 3: above 20% growth control rate; Level 2: 5%-20% growth control rate; Level 1: below 5% growth control rate. Conditions: post-emergence spray at 4-5 leaf stage, 250 g/ha active ingredient with 450 kg/ha water, rated after 3 weeks in greenhouse. The gist of the method:
as §1

Series [10] deals with alopecurus japonicas. Briefly: wheat field resistant weed control, greenhouse spray at 4 leaf stage. Further details: key: Level 10: completely dead; Level 9: above 95% growth control rate; Level 8: above 90% growth control rate; Level 7: above 80% growth control rate; Level 6: above 70% growth control rate; Level 5: above 60% growth control rate; Level 4: above 50% growth control rate; Level 3: above 20% growth control rate; Level 2: 5%-20% growth control rate; Level 1: below 5% growth control rate. Conditions: sprayed at 4 leaf stage, 4 weeks after treatment, resistant to ALS and ACCase inhibitor herbicides. The gist of the method: (§2)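 Potted plants grown in greenhouse were sprayed at the 4 leaf stage, 2–3 weeks post-sowing, with compound in acetone plus methyl oleate emulsion diluted in water. After 4 weeks of further greenhouse culture, growth control was scored as fresh weight control rate.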

The test system of series [11] is wheat. As to the kind of experiment: wheat field test, crop selectivity, greenhouse spray at 4 leaf stage. Conditions: 4 weeks after treatment. The procedure, abridged: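 Compounds in acetone were mixed with methyl oleate emulsion, diluted with water and applied with a sprayer to greenhouse plants at the 4 leaf stage. Growth control, expressed as fresh weight control rate, was assessed after 4 weeks of further culture.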

Series [12] deals with chickweed. As to the kind of experiment: wheat field resistant broadleaf weed control, greenhouse spray at 4 leaf stage. Further details: key: Level 10: completely dead; Level 9: above 95% growth control rate; Level 8: above 90% growth control rate; Level 7: above 80% growth control rate; Level 6: above 70% growth control rate; Level 5: above 60% growth control rate; Level 4: above 50% growth control rate; Level 3: above 20% growth control rate; Level 2: 5%-20% growth control rate; Level 1: below 5% growth control rate. Conditions: 250 g/ha of the active substance; 4 weeks after treatment; ALS inhibitor resistant. The procedure, abridged: as §2

In series [13] the test system is corn gromwell. The series is described as above. Further details: key: Level 10: completely dead; Level 9: above 95% growth control rate; Level 8: above 90% growth control rate; Level 7: above 80% growth control rate; Level 6: above 70% growth control rate; Level 5: above 60% growth control rate; Level 4: above 50% growth control rate; Level 3: above 20% growth control rate; Level 2: 5%-20% growth control rate; Level 1: below 5% growth control rate. The settings on record: 250 g/ha of the active substance; 4 weeks after treatment; ALS inhibitor resistant. The gist of the method: as §2

Series [14] relates to flixweed. The description is as above. Details: key: Level 10: completely dead; Level 9: above 95% growth control rate; Level 8: above 90% growth control rate; Level 7: above 80% growth control rate; Level 6: above 70% growth control rate; Level 5: above 60% growth control rate; Level 4: above 50% growth control rate; Level 3: above 20% growth control rate; Level 2: 5%-20% growth control rate; Level 1: below 5% growth control rate. The settings on record: 250 g/ha of the active substance; 4 weeks after treatment; ALS inhibitor resistant. The procedure, abridged:
as §2

The subject of series [15] is shepherd's purse. The series is described as above. Details: key: Level 10: completely dead; Level 9: above 95% growth control rate; Level 8: above 90% growth control rate; Level 7: above 80% growth control rate; Level 6: above 70% growth control rate; Level 5: above 60% growth control rate; Level 4: above 50% growth control rate; Level 3: above 20% growth control rate; Level 2: 5%-20% growth control rate; Level 1: below 5% growth control rate. Conditions: 250 g/ha of the active substance; 4 weeks after treatment; ALS inhibitor resistant. The gist of the method: as §2

Where [16] appears, read: 2 g/mu, sprayed at 4 leaf stage.
Where [17] appears, read: 4 g/mu, sprayed at 4 leaf stage.
The mark [18] stands for this setting: 8 g/mu, sprayed at 4 leaf stage.
[19] abbreviates: 16 g/mu, sprayed at 4 leaf stage.
Setting [20] is: 32 g/mu, sprayed at 4 leaf stage.
Setting [21] is: 250 g/ha of the active substance.

With `Cn1nc(C2CC2)c(C(=O)c2ccc(C(F)(F)F)c(N3CCCCC3=O)c2Cl)c1O` [Compound 046], the “weed control effect, Indian mallow (level)” value in series [1] is 10. In addition, the “weed control effect, Bidens bipinnata (level)” value in series [2] is 2 (Level 2: 5%-20% growth control rate). Also, the “weed control effect, Crab grass (level)” value in series [3] was 6 (Level 6: above 70% growth control rate). In addition, the “weed control effect, Echinochloa (level)” value in [4] was 6 (Level 6: above 70% growth control rate). Further, in series [5], the “weed control effect, Green foxtail (level)” value was determined as 10. Further, the “weed control effect, Rorippa indica (level)” value in [6] is recorded as 10. Moreover, in series [7], the “effect on crop, Corn (level)” value was 4 (Level 4: above 50% growth control rate). The “effect on crop, Wheat (level)” value in series [8] was 0. Further, the “effect on crop, Rice (level)” value in series [9] is listed as 5 (Level 5: above 60% growth control rate). Besides, the “Alopecurus japonicas weed controlling effect (activity level)” value is given as 6 (Level 6: above 70% growth control rate) in series [10] (1 g/mu), 9 (Level 9: above 95% growth control rate) in [10] (2 g/mu), 10 in series [10] (4 g/mu) and 10 in series [10] (8 g/mu). For the same compound, the “Wheat (activity level, crop damage)” value is on record as 0 in series [11] (setting [16]); 0 in [11] (setting [17]); 0 in series [11] (setting [18]); 0 in series [11] (setting [19]); 1 (Level 1: below 5% growth control rate) in [11] (setting [20]); 0 in series [11] (setting [21]). Besides, the “chickweed weed controlling effect (activity level)” value (“chickweed weed controlling effect” for short) in [12] is listed as 10. The “corn gromwell weed controlling effect (activity level)” value (“corn gromwell weed controlling effect” below) in series [13] came to 10. Further, the “flixweed weed controlling effect (activity level)” value (shortened to “flixweed weed controlling effect”) in [14] was found to be 10. Further, the “shepherd's purse weed controlling effect (activity level)” value in series [15] is on record as 10.
Regarding `CCOc1c(C(=O)Oc2c(C(=O)c3ccc(C(F)(F)F)c(N4CCCCC4=O)c3Cl)c(C3CC3)nn2C)cnn1C` [Compound 048], in series [1], the “weed control effect, Indian mallow (level)” value is reported as 10. Further, in series [2], the “weed control effect, Bidens bipinnata (level)” value is reported as 4 (Level 4: above 50% growth control rate). Also, in series [3], the “weed control effect, Crab grass (level)” value is recorded as 7 (Level 7: above 80% growth control rate). Also, in series [4], the “weed control effect, Echinochloa (level)” value is on record as 6 (Level 6: above 70% growth control rate). Besides, the “weed control effect, Green foxtail (level)” value in [5] is listed as 8 (Level 8: above 90% growth control rate). Further, in [6], the “weed control effect, Rorippa indica (level)” value worked out at 10. The “effect on crop, Corn (level)” value in series [7] is recorded as 3 (Level 3: above 20% growth control rate). Further, the “effect on crop, Wheat (level)” value in series [8] is on record as 1 (Level 1: below 5% growth control rate). Also, the “effect on crop, Rice (level)” value in series [9] was 5 (Level 5: above 60% growth control rate). In addition, the “Alopecurus japonicas weed controlling effect (activity level)” value is listed as 8 (Level 8: above 90% growth control rate) in series [10] (1 g/mu), 10 in series [10] (2 g/mu), 10 in series [10] (4 g/mu) and 10 in series [10] (8 g/mu). Also, the “Wheat (activity level, crop damage)” value was 0 in series [11] (setting [16]); 0 in [11] (setting [17]); 0 in series [11] (setting [18]); 1 (Level 1: below 5% growth control rate) in series [11] (setting [19]); 4 (Level 4: above 50% growth control rate) in series [11] (setting [20]); 0 in [11] (setting [21]). Besides, in series [12], the “chickweed weed controlling effect” value worked out at 10. For the same compound, the “corn gromwell weed controlling effect” value in [13] came out at 10. For the same compound, the “flixweed weed controlling effect” value in [14] was determined as 10. Moreover, in series [15], the “shepherd's purse weed controlling effect (activity level)” value stood at 10.
Turning to `CCc1nn(C)c(OC(=O)c2cn(C)nc2C)c1C(=O)c1ccc(C(F)(F)F)c(-n2cc(C)cn2)c1Cl` [Compound 141], the “weed control effect, Indian mallow (level)” value in [1] is 9 (Level 9: above 95% growth control rate). Besides, the “weed control effect, Bidens bipinnata (level)” value in series [2] is listed as 7 (Level 7: above 80% growth control rate). The “weed control effect, Crab grass (level)” value in series [3] is listed as 3 (Level 3: above 20% growth control rate). Moreover, the “weed control effect, Echinochloa (level)” value in series [4] was 9 (Level 9: above 95% growth control rate). In addition, the “weed control effect, Green foxtail (level)” value in [5] was 7 (Level 7: above 80% growth control rate). For the same compound, the “weed control effect, Rorippa indica (level)” value in [6] is listed as 10. The “effect on crop, Corn (level)” value in series [7] turned out to be 0. In addition, the “effect on crop, Wheat (level)” value in series [8] is 1 (Level 1: below 5% growth control rate). Moreover, the “effect on crop, Rice (level)” value in series [9] is given as 10. For the same compound, in [11] (setting [21]), the “Wheat (activity level, crop damage)” value was 1 (Level 1: below 5% growth control rate). The “chickweed weed controlling effect” value in series [12] is reported as 10. Besides, in [13], the “corn gromwell weed controlling effect” value worked out at 10. For the same compound, the “flixweed weed controlling effect” value in series [14] was 10. In series [15], the “shepherd's purse weed controlling effect (activity level)” value was 10.
